Assay results: article PMC7346113, “Screening of Natural Stilbene Oligomers from Vitis vinifera for Anticancer Activity on Human Hepatocellular Carcinoma Cells” (Antioxidants, 2020)

Columns and labels:
Type in all cases: cell-based, human
HH4 = assay: Cell viability, crystal violet assay, HH4 non-transformed hepatocytes; conditions: Homo sapiens, Hepatocyte, mean ± standard error
Description: The human hepatoma cell line HepG2 was obtained from the American Tissue Culture Collection (ATCC, Manassas, VA, USA). The human hepatoma cell line Hep3B was obtained from the European Collection of Authenticated Cell Cultures (ECACC, Porton Down, Salisbury, Wiltshire, UK). HH4 non-transformed human hepatocyte cell line (kindly provided by Dr. I. Fabregat, Molecular Oncology, Bellvitge Biomedical Research Institute, Spain) was established as described.
HepG2 and Hep3B cell lines were maintained in Eagle’s Minimum Essential Medium and HH4 cell line was grown in Ham´s F12 Nutrient Mixture (Sigma-Aldrich, St Louis, MO, USA). Both culture media were supplemented with 10% heat inactivated fetal bovine serum, 2 mM L-glutamine and antibiotics (0.1 mg/mL streptomycin and 100 U/mL penicillin) (Sigma-Aldrich, St Louis, MO, USA). Cell cultures were grown in an incubator at 37 °C with 5% CO2 atmosphere. After reaching approximately 80% of confluence, cells were detached in a solution of 0.1% trypsin and 0.04% EDTA and plated as required for further experiments.
Cell lines were seeded into 96-well plates at 5 × 10^3 (HepG2) and 3 × 10^3 (Hep3B and HH4) cells/well 24 h before treatment. Increasing concentrations of the monomer trans-resveratrol, the dimers ampelopsin A and trans-ε-viniferin and the tetramers isohopeaphenol, hopeaphenol, R2-viniferin and R-viniferin were then added and cells were incubated for 24, 48, and 72 h. Stilbenes were dissolved in dimethyl sulfoxide (DMSO), Sigma-Aldrich, St Louis, MO, USA) at a final concentration of 0.01%. The same amount of DMSO was added to control cells. After treatment, the cell viability was determined using the crystal violet assay. The absorbance was recorded at 590 nm in a Synergy HT microplate reader (BioTek, Winooski, VT, USA). Cell viability was calculated as the percentage of viable cells treated with stilbene versus untreated control cells using the following equation: Cell viability (%) = [OD (Treatment) − OD (Blank)]/[OD (Control) − OD (Blank)] × 100. The cytotoxic effect of stilbenes was determined by calculating IC50 values using non-linear regression analysis (GraphPad Prism 6, San Diego, CA, USA).
The statistical package SPSS 19.0 (SPSS Inc. Chicago, IL, USA) was used for data analysis. The results were expressed as mean ± standard error (SE) from at least three experiments. Statistical significance for the differences of the means was estimated by parametric Student’s t-test. Differences between means were considered statistically significant for p < 0.05. IC50 values were derived from fitting the data to a sigmoidal dose-response curve with a three-parameter logistic model using Graph Pad Prism 6.

[1] = test system: caspase-3 activity in HepG2; assay: Caspase-3 activity, Ac-DEVD-AMC fluorogenic substrate
Procedure: The activity of caspase-3 was measured using the specific synthetic tetrapeptide fluorogenic substrate Ac-DEVD-AMC (BD Pharmigen Biosciences, San Diego, CA, USA). The assay was carried out in 96-well plates in a total volume of 100 µL, with 37 μM of the substrate and 50 µg of protein in the assay medium in 100 mM HEPES, pH 7.4, containing 200 mM NaCl, 0.2% CHAPS, 2 mM EDTA, 20% glycerol, and 5 mM dithiothreitol (DTT).
In the presence of caspase-3, the Ac-DEVD-AMC substrate is hydrolyzed and the fluorogenic compound AMC is released. The activity was determined by continuous recording of the fluorescence at λex = 360 nm and λem = 460 nm at 37 °C for 2 h every 5 min in a Synergy HT microplate reader (BioTek, Winooski, VT, USA). Results were expressed as the percentage of the fluorescence in control cells.

Hep3B = assay: Cell cycle analysis by flow cytometry (propidium iodide), Hep3B; conditions: 10 µM; for Cell cycle G0/G1 (percentage of cells) / Cell cycle G2/M (percentage of cells) / Cell cycle S (percentage of cells) / SubG0 (percentage of total cells): mean ± SE
Procedure: Exponentially growing cells were seeded in 6-wells plates (200,000 cells HepG2 and 180,000 cells Hep3B) 24 h before R2-viniferin treatment. On the day of treatment, the culture medium was replaced with culture medium containing R2-viniferin or vehicle solution (control).
After a treatment, cells were detached by trypsinization and fixed overnight at 4 °C in 70% ice-cold ethanol diluted in phosphate buffer saline (PBS). The ethanol was then discarded and the cells were washed with ice-cold PBS and finally stained with 25 μg/mL of propidium iodide (Sigma-Aldrich, St Louis, MO, USA) in the presence of 200 μg/mL ribonuclease A (Roche Biochemicals, Indianapolis, IN, USA) for 30 min at room temperature in the dark. Flow cytometry analysis (Beckman Coulter Gallios) was carried out from a total number of 10,000 events acquired in the General Research Services SGIker of the UPV/EHU. Analysis of the data was performed using Summit 4.3 software (Dako, Glostrup, Hovedstaden, Denmark).

SMILES: Oc1ccc([C@H]2c3c(O)cc(O)cc3[C@H]3c4c(cc(O)cc4[C@@H]2c2cc(/C=C/c4cc(O)cc5c4[C@H](c4cc(O)cc(O)c4)[C@@H](c4ccc(O)cc4)O5)ccc2O)O[C@@H]3c2ccc(O)cc2)cc1 [R2-Viniferin]
- IC50 (HH4; 24 h): > 200 µM
- IC50 (HH4; 48 h): > 200 µM
- IC50 (HH4; 72 h): > 200 µM
- Effect on caspase-3 activity ([1]; HepG2, 5 µM): increased caspase-3 activity at 72 h
- Effect on caspase-3 activity ([1]; HepG2, 10 µM): increased the caspase-3 activity significantly from 24 h to 72 h
- Effect on cell cycle (Hep3B): did not alter cell cycle
- Cell cycle G0/G1 (percentage of cells) (Hep3B; 24 h): 63.6 ± 8.0%
- Cell cycle G2/M (percentage of cells) (Hep3B; 24 h): 20.7 ± 6.1%
- Cell cycle S (percentage of cells) (Hep3B; 24 h): 15.7 ± 3.7%
- SubG0 (percentage of total cells) (Hep3B; 24 h): 2.0 ± 0.6%
- Cell cycle G0/G1 (percentage of cells) (Hep3B; 48 h): 73.7 ± 3.4%
- Cell cycle G2/M (percentage of cells) (Hep3B; 48 h): 16.5 ± 2.0%
- Cell cycle S (percentage of cells) (Hep3B; 48 h): 10.4 ± 1.6%
- SubG0 (percentage of total cells) (Hep3B; 48 h): 1.8 ± 0.4%
- Cell cycle G0/G1 (percentage of cells) (Hep3B; 72 h): 75.5 ± 3.9%
- Cell cycle G2/M (percentage of cells) (Hep3B; 72 h): 14.7 ± 2.9%
- Cell cycle S (percentage of cells) (Hep3B; 72 h): 9.8 ± 1.2%
- SubG0 (percentage of total cells) (Hep3B; 72 h): 3.3 ± 0.7%
